Consider five compounds from publication PMC5002989 (Bioorganic & medicinal chemistry letters, 2016).

A short description of series [1]: Experimental water solubility, thermodynamic solubility method. In kind it is physicochemical. The note with it: for solubility: water, Experimentally determined water solubility of the hydrochloride salt.
Series [2] concerns the target VMAT2 (Rattus norvegicus, UniProt Q01827). The experiment in a line: [3H]DA uptake at VMAT2 in rat striatal vesicle preparations. In kind it is biochemical.
In series [3] the target is hERG channel (Homo sapiens, UniProt Q12809). Nature of the series: biochemical.

Read-outs that look alike come from different tables or passages of the source.

Sequence of VMAT2 (Q01827 whole entry): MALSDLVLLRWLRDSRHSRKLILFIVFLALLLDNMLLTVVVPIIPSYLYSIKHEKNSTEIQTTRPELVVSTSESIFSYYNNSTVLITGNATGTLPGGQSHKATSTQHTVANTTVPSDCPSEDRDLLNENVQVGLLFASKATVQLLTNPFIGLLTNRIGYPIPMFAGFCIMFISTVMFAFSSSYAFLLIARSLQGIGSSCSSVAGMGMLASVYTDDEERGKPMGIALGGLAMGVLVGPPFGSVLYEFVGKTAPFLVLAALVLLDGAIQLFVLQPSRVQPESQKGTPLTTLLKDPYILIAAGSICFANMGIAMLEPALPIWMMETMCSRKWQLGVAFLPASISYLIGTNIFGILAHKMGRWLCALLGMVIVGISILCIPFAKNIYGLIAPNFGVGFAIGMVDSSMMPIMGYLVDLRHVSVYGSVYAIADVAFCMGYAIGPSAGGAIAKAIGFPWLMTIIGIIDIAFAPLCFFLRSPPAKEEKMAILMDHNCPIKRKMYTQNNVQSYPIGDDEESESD
Sequence of hERG channel (Q12809 whole entry): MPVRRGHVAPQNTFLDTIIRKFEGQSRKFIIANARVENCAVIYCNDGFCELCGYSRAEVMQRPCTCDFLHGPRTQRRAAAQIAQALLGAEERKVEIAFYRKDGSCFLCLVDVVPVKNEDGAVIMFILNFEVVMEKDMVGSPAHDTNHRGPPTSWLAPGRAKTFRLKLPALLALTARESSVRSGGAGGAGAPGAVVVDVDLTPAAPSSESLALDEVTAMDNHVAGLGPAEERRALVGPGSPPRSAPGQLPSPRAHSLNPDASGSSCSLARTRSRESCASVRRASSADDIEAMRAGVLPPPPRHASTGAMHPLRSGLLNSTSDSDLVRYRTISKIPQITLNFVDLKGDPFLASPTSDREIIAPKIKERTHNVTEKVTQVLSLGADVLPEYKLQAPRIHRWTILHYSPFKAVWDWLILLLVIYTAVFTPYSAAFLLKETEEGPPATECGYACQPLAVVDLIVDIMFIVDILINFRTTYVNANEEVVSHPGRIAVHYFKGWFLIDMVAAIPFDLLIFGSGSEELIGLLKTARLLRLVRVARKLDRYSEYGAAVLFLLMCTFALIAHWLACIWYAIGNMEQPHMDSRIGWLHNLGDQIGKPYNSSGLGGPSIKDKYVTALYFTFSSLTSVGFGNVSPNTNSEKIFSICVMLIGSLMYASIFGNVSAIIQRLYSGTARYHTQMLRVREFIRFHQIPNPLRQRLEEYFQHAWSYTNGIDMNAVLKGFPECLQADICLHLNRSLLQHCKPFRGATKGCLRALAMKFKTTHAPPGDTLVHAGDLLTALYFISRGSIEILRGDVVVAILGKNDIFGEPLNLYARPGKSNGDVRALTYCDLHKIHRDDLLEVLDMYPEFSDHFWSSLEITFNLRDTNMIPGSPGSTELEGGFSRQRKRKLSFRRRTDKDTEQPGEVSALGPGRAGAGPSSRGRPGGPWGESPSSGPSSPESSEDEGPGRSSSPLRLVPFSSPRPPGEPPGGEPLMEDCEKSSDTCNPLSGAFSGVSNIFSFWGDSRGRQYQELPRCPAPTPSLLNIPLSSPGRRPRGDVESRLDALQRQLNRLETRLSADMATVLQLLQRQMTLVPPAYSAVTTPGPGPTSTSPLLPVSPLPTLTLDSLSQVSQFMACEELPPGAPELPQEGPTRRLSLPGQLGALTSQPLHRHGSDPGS

Consider `COc1ccccc1CCN1CCN(CCc2ccccc2OC)CC1.Cl.Cl` [Compound 6b], for which the “Experimentally determined water solubility of the hydrochloride salt” value (“Experimentally” below) in series [1] (listed as C00014) is recorded as 25.0 mg/mL. Besides, in series [1], the solubility amounted to 33.3 mg/mL. Turning to `COc1ccccc1CCN1CCN(CCc2ccccc2)CC1.Cl.Cl` [Compound 9a], the results for the “Experimentally” value in series [1] and in series [1] (listed as C00004) were 13.5 mg/mL and 33.3 mg/mL, respectively. For the compound `Cl.Cl.Fc1ccc(CCN2CCN(CCc3ccc(F)cc3)CC2)cc1` [Compound 6f], in series [2], the “[3H]DA uptake Ki in comparison to lobelane” value is recorded as “not different from lobelane”. In turn, `CN1[C@@H](CCc2ccccc2)CCC[C@H]1CCc1ccccc1` [Lobelane (2), lobelane] came in with a Ki in series [3] of 238 ± 38.9 nM. Turning to `Cl.Cl.Clc1ccccc1CCN1CCN(CCc2ccccc2Cl)CC1` [Compound 6e], the “Experimentally” value in series [1] (listed as C00020) is listed as 13.5 mg/mL. The solubility in series [1] stood at 25 mg/mL.
